Experimental data as given in US20110112044A1, “NOVEL USES OF D-MANNOPYRANOSE DERIVATIVES” (CENTRE NATIONAL DE LA RECHERCHE SCIENTIFIQUE, priority 2008, published 2011).

Tested on: chorioallantoic membrane (CAM) of chick embryo
Assay: Chick embryo chorioallantoic membrane (CAM) angiogenesis assay
Format: in vivo, chick (white Leghorn)
Details: 20 μL of 6 mg/mL in PBS on nitrocellulose disk placed on CAM on 7th day, observed 12th day, estimated visually
Description: In this example, the activity of mannose-6-phosphate (M6P) and of the compounds of formulae (I-1), (I-2) and (I-3) as prepared in examples 1 to 3 above, respectively, on the inhibition of angiogenesis was studied, in comparison with three D-mannopyranoside (DM) derivatives having pro-angiogenic activity and thus not forming part of the invention (DM1: methyl 7-amino-6,7-dideoxy-α-D-mannopyranoside; DM2: methyl 6-azido-6-deoxy-α-D-mannopyranoside and DM3: methyl 7-disodiumphosphonato-6,7-dideoxy-α-D-mannohepto-pyranoside). This study was performed on chick embryos according to the method described by Ribatti D. et al., Nat. Protoc., 2006, 1(1), 85-91 with a few minor modifications.
This study was performed on the chorioallantoic membrane (CAM) of chick embryo. The CAM is an extra-embryonic membrane formed on the fourth day of incubation by fusion of the chorion and of the allantois. It allows gas exchange between the chick embryo and the extra-embryonic environment up to the time of birth. This CAM is composed of a very thick capillary network that forms a continuous surface in direct contact with the shell. Rapid capillary proliferation of this membrane continues up to the 11th day; the mitotic index then decreases rapidly and the vascular system reaches its final organization on the 18th day, just before birth (hatching on the 21st day).
Fertilized eggs of a hen of the white Leghorn race were placed in an incubator from the start of embryogenesis, where they were kept under constant humidity at a temperature of 38° C. On the second day of incubation, a window was opened in the shell after removal of 2 to 3 mL of albumin in order to detach the CAM from the shell. The window was then sealed with adhesive tape and the egg was returned to the incubator to continue its development up to the date of the experiment. On the 7th day, pieces of inert synthetic polymers (nitrocellulose filter disks 0.4 cm in diameter) were soaked with 20 μL of each of the solutions of the test compounds (6 mg/mL in PBS) and then positioned on the CAM. The impact of the test substances on the angiogenesis was then observed on the 12th day and the quantitative evaluation of the pro- or anti-angiogenic response was estimated visually.

| Compound | effect on the vascularization of chick embryos |
| --- | --- |
| CO[C@H]1OC(CC(C(=O)O)C(=O)O)[C@@H](O)C(O)C1O (stereo partly drawn) [(I-3), methyl 6-deoxy-6-malonate-α-D-Mannopyranoside] | inhibitory effect |
| CO[C@H]1OC(CC(=O)O)[C@@H](O)C(O)C1O (stereo partly drawn) [(I-2), (Methyl 6,7-Dideoxy-α-D-Mannoheptopyranosine)uronic acid] | inhibitory effect |
| CO[C@H]1O[C@H](CCN)[C@@H](O)[C@H](O)[C@@H]1O [DM1, methyl 7-amino-6,7-dideoxy-α-D-mannopyranoside, reference compound] | activating effect |
| CO[C@H]1O[C@H](CCP(=O)([O-])[O-])[C@@H](O)[C@H](O)[C@@H]1O.[Na+].[Na+] [DM3, methyl 7-disodiumphosphonato-6,7-dideoxy-α-D-mannohepto-pyranoside, reference compound] | activating effect |
| CO[C@H]1O[C@H](CCS(=O)(=O)[O-])[C@@H](O)[C@H](O)[C@@H]1O.[Na+] [(I-1), Methyl 6,7-Dideoxy-7-Sodiumsulfonato-α-d-mannoheptopyranoside] | inhibitory effect |
| CO[C@H]1O[C@H](CN=[N+]=[N-])[C@@H](O)[C@H](O)[C@@H]1O [DM2, methyl 6-azido-6-deoxy-α-D-mannopyranoside, reference compound] | activating effect |
| COC1O[C@H](COP(=O)(O)O)[C@@H](O)[C@H](O)[C@@H]1O (stereo partly drawn) [M6P, methyl D-mannopyranoside 6-phosphate] | inhibitory effect |
